Biological target: factor B (Homo sapiens, UniProt P00751)
Assay: factor B inhibition assay of Biological Example 1
Assay type: biochemical
Parameters: CVF-Bb complex prepared from purified cobra venom factor (1 μM), recombinant human complement factor B; made in house; host or cells: drosophila cells (factor B); E. coli (factor D used to form the complex)
Settings: IC50 (nM), assay of Biological Example 1 (Table 1)

factor B, sequence (P00751 260-764 limits assumed): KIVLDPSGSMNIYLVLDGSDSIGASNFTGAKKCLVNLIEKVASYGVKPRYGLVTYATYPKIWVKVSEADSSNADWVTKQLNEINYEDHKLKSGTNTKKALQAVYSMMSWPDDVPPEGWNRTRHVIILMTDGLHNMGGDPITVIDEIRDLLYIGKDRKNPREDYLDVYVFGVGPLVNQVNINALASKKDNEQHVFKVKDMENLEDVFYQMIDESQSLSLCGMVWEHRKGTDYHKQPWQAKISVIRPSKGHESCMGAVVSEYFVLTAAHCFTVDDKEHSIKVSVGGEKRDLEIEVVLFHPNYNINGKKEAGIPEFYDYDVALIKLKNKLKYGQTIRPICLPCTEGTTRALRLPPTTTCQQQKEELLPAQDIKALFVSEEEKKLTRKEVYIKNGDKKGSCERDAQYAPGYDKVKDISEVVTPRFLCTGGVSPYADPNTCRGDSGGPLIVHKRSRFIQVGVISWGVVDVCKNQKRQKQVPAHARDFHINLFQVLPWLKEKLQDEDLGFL
factor B, sequence (Q91132 23-649 partner limits assumed): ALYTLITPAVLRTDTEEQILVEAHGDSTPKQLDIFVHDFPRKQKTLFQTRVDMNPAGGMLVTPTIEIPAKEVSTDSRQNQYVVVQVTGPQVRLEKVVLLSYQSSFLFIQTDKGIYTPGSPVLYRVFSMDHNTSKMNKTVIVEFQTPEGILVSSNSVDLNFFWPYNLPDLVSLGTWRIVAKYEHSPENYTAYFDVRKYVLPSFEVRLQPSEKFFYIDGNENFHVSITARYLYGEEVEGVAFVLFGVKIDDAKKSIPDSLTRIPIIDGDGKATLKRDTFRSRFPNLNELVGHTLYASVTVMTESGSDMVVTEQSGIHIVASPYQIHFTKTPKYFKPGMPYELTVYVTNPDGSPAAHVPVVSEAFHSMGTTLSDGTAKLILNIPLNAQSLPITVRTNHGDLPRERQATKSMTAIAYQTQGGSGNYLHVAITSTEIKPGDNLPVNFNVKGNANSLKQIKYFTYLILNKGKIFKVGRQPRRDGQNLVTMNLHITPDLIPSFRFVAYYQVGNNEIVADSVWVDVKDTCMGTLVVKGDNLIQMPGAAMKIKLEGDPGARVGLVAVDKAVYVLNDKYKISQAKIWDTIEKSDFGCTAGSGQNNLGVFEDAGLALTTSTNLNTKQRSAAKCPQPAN
factor B, sequence (Q91132 733-984 partner limits assumed): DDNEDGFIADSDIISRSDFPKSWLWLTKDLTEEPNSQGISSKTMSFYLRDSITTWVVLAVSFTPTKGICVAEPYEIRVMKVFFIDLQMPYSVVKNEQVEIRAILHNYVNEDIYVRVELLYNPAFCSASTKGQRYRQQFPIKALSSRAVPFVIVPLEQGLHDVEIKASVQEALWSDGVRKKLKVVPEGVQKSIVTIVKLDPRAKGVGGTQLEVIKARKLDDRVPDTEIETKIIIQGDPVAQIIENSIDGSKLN
factor B, sequence (Q91132 1264-1642 partner limits assumed): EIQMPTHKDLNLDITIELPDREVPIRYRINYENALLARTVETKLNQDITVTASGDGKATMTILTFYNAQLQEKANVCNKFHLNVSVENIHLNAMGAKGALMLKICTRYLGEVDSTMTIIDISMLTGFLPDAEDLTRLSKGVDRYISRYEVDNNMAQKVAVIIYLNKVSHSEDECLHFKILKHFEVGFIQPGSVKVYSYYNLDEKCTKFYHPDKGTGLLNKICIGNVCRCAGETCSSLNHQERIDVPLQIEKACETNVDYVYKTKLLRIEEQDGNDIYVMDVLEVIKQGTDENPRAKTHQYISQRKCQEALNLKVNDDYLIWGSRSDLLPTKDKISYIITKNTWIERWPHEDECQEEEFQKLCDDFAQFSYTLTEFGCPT

`Cc1cc(C(C)C)c(C(C)(O)c2nc3cc(C#N)ccc3[nH]2)c2cc[nH]c12` (single isomer, unassigned; (-)) [79-B b) (−), (−)-2-(1-hydroxy-1-(5-isopropyl-7-methyl-1H-indol-4-yl)ethyl)-1H-benzo[d]imidazole-5-carbonitrile] and `Cc1cc(CC(C)C)c(C(C)(O)c2nc3cc(C#N)ccc3[nH]2)c2cc[nH]c12` (single isomer, unassigned; (-)) [79-D b) (−), (−)-2-(1-hydroxy-1-(5-isobutyl-7-methyl-1H-indol-4-yl)ethyl)-1H-benzo[d]imidazole-5-carbonitrile] are within 1.5-fold of each other in IC50: 260 nM for the first, 310 nM for the second.

`Cc1cc(C2CC2)c(C(C)(O)c2nc3cc(C#N)ccc3[nH]2)c2cc[nH]c12` (single isomer, unassigned; (-)) [79-C b) (−), (−)-2-(1-(5-cyclopropyl-7-methyl-1H-indol-4-yl)-1-hydroxyethyl)-1H-benzo[d]imidazole-5-carbonitrile] and `Cc1cc(C2CC2)c(C(C)(N)c2nc3cc(C#N)ccc3[nH]2)c2cc[nH]c12` (single isomer, unassigned; (-)) [102-D b) (−), (−)-2-(1-amino-1-(5-cyclopropyl-7-methyl-1H-indol-4-yl)ethyl)-1H-benzo[d]imidazole-5-carbonitrile] are within 1.5-fold of each other in IC50: 6 nM for the first, 8 nM for the second.

Compared with `Cc1cc(Cl)c(C(C)(O)c2nc3cc(C#N)ccc3[nH]2)c2cc[nH]c12` (single isomer, unassigned; (-)) [79-E b) (−), (−)-2-(1-(5-chloro-7-methyl-1H-indol-4-yl)-1-hydroxyethyl)-1H-benzo[d]imidazole-5-carbonitrile], `COC(C)(c1nc2cc(C#N)ccc2[nH]1)c1c(C)cc(C)c2[nH]ccc12` (single isomer, unassigned; (-)) [84-B b) (−), (−)-2-(1-(5,7-dimethyl-1H-indol-4-yl)-1-methoxyethyl)-1H-benzo[d]imidazole-5-carbonitrile] is 7-fold lower in IC50: 350 nM for the first, 50 nM for the second. The second is the more potent here.

First: CCc1cc(C)c2[nH]ccc2c1C(O)(c1nc2cc(C#N)ccc2[nH]1)C(F)(F)F (single isomer, unassigned; (-)) [80-C b) (−), (−)-2-(1-(5-ethyl-7-methyl-1H-indol-4-yl)-2,2,2-trifluoro-1-hydroxyethyl)-1H-benzo[d]imidazole-5-carbonitrile]
Second: Cc1cc(C)c2[nH]ccc2c1C(O)(c1nc2cc(C#N)ccc2[nH]1)C(F)(F)F (single isomer, unassigned; (-)) [80-D b) (−), (−)-2-(1-(5,7-dimethyl-1H-indol-4-yl)-2,2,2-trifluoro-1-hydroxyethyl)-1H-benzo[d]imidazole-5-carbonitrile]
The IC50 of the first is 7-fold lower: 10 nM for the first, 70 nM for the second. The first is the more potent here.

`Cc1cc(C2CC2)c(C(O)(c2nc3cc(C#N)ccc3[nH]2)C(F)(F)F)c2cc[nH]c12` (single isomer, unassigned; (-)) [80-E b) (−), (−)-2-(1-(5-cyclopropyl-7-methyl-1H-indol-4-yl)-2,2,2-trifluoro-1-hydroxyethyl)-1H-benzo[d]imidazole-5-carbonitrile] and `Cc1cc(C2CC2)c(C(N)(c2nc3cc(C#N)ccc3[nH]2)C(F)(F)F)c2cc[nH]c12` (single isomer, unassigned; (-)) [107-D b) (−), (−)-2-(1-amino-1-(5-cyclopropyl-7-methyl-1H-indol-4-yl)-2,2,2-trifluoroethyl)-1H-benzo[d]imidazole-5-carbonitrile] are within 1.5-fold of each other in IC50: 10 nM for the first, 8 nM for the second.

`Cc1cc(C(C)C)c(C(O)(c2nc3cc(C#N)ccc3[nH]2)C(F)(F)F)c2cc[nH]c12` (single isomer, unassigned; (-)) [80-F b) (−), (−)-2-(2,2,2-trifluoro-1-hydroxy-1-(5-isopropyl-7-methyl-1H-indol-4-yl)ethyl)-1H-benzo[d]imidazole-5-carbonitrile] and `Cc1cc(Br)c(C(N)(c2nc3cc(C#N)ccc3[nH]2)C(F)(F)F)c2cc[nH]c12` (single isomer, unassigned; (-)) [105-B b) (−), (−)-2-(1-amino-1-(5-bromo-7-methyl-1H-indol-4-yl)-2,2,2-trifluoroethyl)-1H-benzo[d]imidazole-5-carbonitrile] are the same in IC50: 20 nM for the first, 20 nM for the second.

Going from `CCc1cc(C)c2[nH]ccc2c1C(C)(OC)c1nc2cc(C#N)ccc2[nH]1` (single isomer, unassigned; (-)) [84-C b) (−), (−)-2-(1-(5-ethyl-7-methyl-1H-indol-4-yl)-1-methoxyethyl)-1H-benzo[d]imidazole-5-carbonitrile] to `COC(C)(c1nc2cc(C#N)ccc2[nH]1)c1c(CC(C)C)cc(C)c2[nH]ccc12` (single isomer, unassigned; (-)) [84-E b) (−), (−)-2-(1-(5-isobutyl-7-methyl-1H-indol-4-yl)-1-methoxyethyl)-1H-benzo[d]imidazole-5-carbonitrile], the IC50 rises from 10 nM to 260 nM (26-fold).

Going from `CCc1cc(C)c2[nH]ccc2c1C(OC)(c1nc2cc(C#N)ccc2[nH]1)C(F)(F)F` (single isomer, unassigned; (-)) [84-D b) (−), (−)-2-(1-(5-ethyl-7-methyl-1H-indol-4-yl)-2,2,2-trifluoro-1-methoxyethyl)-1H-benzo[d]imidazole-5-carbonitrile] to `CCc1cc(C)c2[nH]ccc2c1C(N)(c1nc2cc(C#N)ccc2[nH]1)C(F)(F)F` (single isomer, unassigned; (-)) [107-C b) (−), (−)-2-(1-amino-1-(5-ethyl-7-methyl-1H-indol-4-yl)-2,2,2-trifluoroethyl)-1H-benzo[d]imidazole-5-carbonitrile], the IC50 rises from 8 nM to 30 nM (3.8-fold).

Compared with `Cc1cc(C)c2[nH]ccc2c1C(N)c1nc2ccc(C#N)cc2[nH]1` (single isomer, unassigned; (-)) [95-B b) (−), (−)-2-(amino(5,7-dimethyl-1H-indol-4-yl)methyl)benzo[d]imidazole-5-carbonitrile], `CCc1cc(C)c2[nH]ccc2c1C(N)c1nc2cc(C#N)ccc2[nH]1` (single isomer, unassigned; (-)) [96-C b) (−), (−)-2-(amino(5-ethyl-7-methyl-1H-indol-4-yl)methyl)-1H-benzo[d]imidazole-5-carbonitrile] is 6.9-fold lower in IC50: 480 nM for the first, 70 nM for the second. The second is the more potent here.

First: CCc1cc(C)c2[nH]ccc2c1C(C)(N)c1nc2cc(C#N)ccc2[nH]1 (single isomer, unassigned; (-)) [102-C b) (−), (−)-2-(1-amino-1-(5-ethyl-7-methyl-1H-indol-4-yl)ethyl)-1H-benzo[d]imidazole-5-carbonitrile]
Second: CCc1cc(C)c2[nH]ccc2c1C(NC)(c1nc2cc(C#N)ccc2[nH]1)C(F)(F)F (single isomer, unassigned; (-)) [107-B b) (−), (−)-2-(1-(5-ethyl-7-methyl-1H-indol-4-yl)-2,2,2-trifluoro-1-(methylamino)ethyl)-1H-benzo[d]imidazole-5-carbonitrile]
The IC50 of the first is 3.3-fold higher: 10 nM for the first, 3 nM for the second.

Going from `CNC(c1nc2cc(C#N)ccc2[nH]1)(c1c(Br)cc(C)c2[nH]ccc12)C(F)(F)F` (single isomer, unassigned; (-)) [106 b) (−), (−)-2-(1-(5-bromo-7-methyl-1H-indol-4-yl)-2,2,2-trifluoro-1-(methylamino)ethyl)-1H-benzo[d]imidazole-5-carbonitrile] to `CNC(c1nc2cc(C#N)ccc2[nH]1)(c1c(C2CC2)cc(C)c2[nH]ccc12)C(F)(F)F` (single isomer, unassigned; (-)) [107-E b) (−), (−)-2-(1-(5-cyclopropyl-7-methyl-1H-indol-4-yl)-2,2,2-trifluoro-1-(methylamino)ethyl)-1H-benzo[d]imidazole-5-carbonitrile], the IC50 falls from 8 nM to 3 nM (2.7-fold).

— patent US9056874B2, “Complement pathway modulators and uses thereof” (NOVARTIS AG, priority 2012, dated 2015)
